Measurements reported in the supplement of paper PMC10307832.

Legend:
Experiment in all cases: relative viability (nuclei count vs DMSO), 5 days (fraction); higher = more cells survive
[1] = compound: CC1=C(C=C(C=C1)NC(=O)C2=CC(=CC=C2)C(C)(C)C#N)NC3=CC4=C(C=C3)N=CN(C4=O)C [AZ628] + CCNC(=O)c1noc(-c2cc(C(C)C)c(O)cc2O)c1-c1ccc(CN2CCOCC2)cc1 [Luminespib] (partner 0.01 µM)
Procedure, shortened: (§1)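 Relative viability is defined as nuclei in treated wells over nuclei in vehicle wells. Duplicate plates were run and medians reported. Lung cancer cell lines in 1536-well plates were dosed by pin tool one day after seeding, with one drug or with a fixed anchor-drug dose plus five library-drug doses (not always all listed) in √10 steps, and nuclei were counted after 5 days.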

[2] = compound: C[As](C)SC[C@H](NC(=O)CC[C@H](N)C(=O)O)C(=O)NCC(=O)O [Darinaparsin] + CCNC(=O)c1noc(-c2cc(C(C)C)c(O)cc2O)c1-c1ccc(CN2CCOCC2)cc1 [Luminespib] (partner 0.01 µM)
Procedure, shortened: as §1

[3] = compound: C[As](C)SC[C@H](NC(=O)CC[C@H](N)C(=O)O)C(=O)NCC(=O)O [Darinaparsin] + C[C@@H](Oc1cc(-c2cnn(C3CCNCC3)c2)cnc1N)c1c(Cl)ccc(F)c1Cl [Crizotinib] (partner 1 µM)
Procedure, shortened: as §1

[4] = compound: C[As](C)SC[C@H](NC(=O)CC[C@H](N)C(=O)O)C(=O)NCC(=O)O [Darinaparsin] + N=C(N)NC(=N)NCCc1ccccc1 [Phenformin] (partner 250 µM)
Procedure, shortened: as §1

Cell Line	relative viability ([1]; first compound 0.08 µM)	relative viability ([1]; first compound 0.253 µM)	relative viability ([1]; first compound 0.8 µM)	relative viability ([1]; first compound 2.53 µM)	relative viability ([1]; first compound 8 µM)	relative viability ([2]; first compound 0.08 µM)	relative viability ([2]; first compound 0.8 µM)	relative viability ([2]; first compound 2.53 µM)	relative viability ([2]; first compound 8 µM)	relative viability ([3]; first compound 0.08 µM)	relative viability ([3]; first compound 0.8 µM)	relative viability ([3]; first compound 2.53 µM)	relative viability ([3]; first compound 8 µM)	relative viability ([4]; first compound 0.08 µM)	relative viability ([4]; first compound 0.8 µM)	relative viability ([4]; first compound 2.53 µM)	relative viability ([4]; first compound 8 µM)
PC-14	0.197	0.132	0.146	0.167	0.202	0.19	0.185	0.157	0.0932	1.26	0.797	0.72	1.01	0.653	0.55	0.716	0.698
EPLC-272H	0.252	0.2	0.527	0.171	0.235	–	0.176	0.328	0.191	1.02	0.529	0.649	0.89	–	0.237	0.251	0.267
NCI-H2228	0.119	0.133	0.18	0.195	0.14	0.162	0.206	0.135	0.102	0.613	0.506	0.484	0.512	0.254	0.281	0.328	0.387
LC-2-ad	1.1	1.08	0.458	1.13	0.926	1.11	1.02	0.797	0.734	0.524	0.459	0.447	0.383	0.614	0.5	0.564	0.484
HOP-62	0.977	0.865	0.759	0.826	0.475	1.1	0.811	0.793	1.09	1.02	1.05	1.05	1.06	0.964	0.759	0.494	0.8
UMC-11	1.16	0.999	0.973	0.98	1.17	1.16	0.994	1.08	1.22	0.678	0.577	0.407	0.559	0.369	0.341	0.357	0.325
Calu-6	–	–	–	–	–	–	–	–	–	1.17	0.857	0.665	0.751	–	–	–	–
HCC-44	1.29	1.08	1.13	0.945	0.767	1.47	1.12	0.954	0.804	0.875	0.872	0.618	0.929	0.312	0.197	0.223	0.169
NCI-H727	0.343	0.337	0.228	0.277	0.203	0.175	0.314	0.285	0.343	0.713	0.786	0.77	0.988	0.405	0.416	0.569	0.475
A-427	1.08	0.805	0.76	0.775	0.555	1.24	0.967	0.803	1.4	1.01	0.902	0.777	1.1	0.348	0.316	0.298	0.36
SK-MES-1	0.848	0.72	0.574	0.598	0.386	1.19	0.691	0.88	0.864	1.19	1.04	0.838	1.11	0.783	0.592	0.594	0.667
NCI-H1623	0.493	0.432	0.393	0.358	0.395	0.538	0.572	0.496	0.43	–	–	–	–	0.619	0.572	0.587	0.621
HCC-827	0.698	0.5	0.588	0.701	0.623	0.812	0.704	0.59	0.936	0.959	0.853	0.979	0.965	0.41	0.417	0.331	0.435
EKVX	0.892	0.857	0.946	0.954	0.864	0.872	0.924	0.926	0.962	1.22	0.935	0.813	1.23	0.244	0.24	0.228	0.243
SW 900	0.18	0.188	0.156	0.152	0.176	0.169	0.169	0.17	0.166	–	–	–	–	0.836	0.475	0.701	0.643
NCI-H661	1.03	0.941	0.912	0.961	0.731	0.934	0.874	1.08	1.04	1.08	1.11	0.929	1.1	0.261	0.25	0.299	0.275
NCI-H1975	0.23	0.304	0.196	0.316	0.228	0.233	0.221	0.23	0.187	1.13	1.12	0.879	1.42	0.448	0.43	0.413	0.427
NCI-H1944	0.651	0.66	0.553	0.546	0.575	0.84	0.705	0.686	0.676	1.39	1.1	1.05	1.27	0.217	0.207	0.216	0.192
SK-LU-1	–	0.181	0.231	0.211	0.169	0.203	0.182	0.214	0.169	1.15	1.06	0.669	0.946	0.777	0.417	0.384	0.743
NCI-H1755	0.326	0.446	0.443	0.421	0.278	0.491	0.393	0.411	0.57	1.08	0.827	0.807	1.12	0.671	0.598	0.545	0.632
NCI-H650	0.935	0.816	0.909	0.843	0.63	0.81	0.793	0.872	0.831	0.861	0.574	0.683	0.899	0.476	0.479	0.428	0.484
SW 1573	0.315	0.258	0.16	0.189	0.171	0.23	0.364	0.302	0.249	1.13	0.711	0.668	0.851	0.438	0.359	0.378	0.37

Cell Line	relative viability ([1]; first compound 0.08 µM)	relative viability ([1]; first compound 0.253 µM)	relative viability ([1]; first compound 0.8 µM)	relative viability ([1]; first compound 2.53 µM)	relative viability ([1]; first compound 8 µM)	relative viability ([2]; first compound 0.08 µM)	relative viability ([2]; first compound 0.8 µM)	relative viability ([2]; first compound 2.53 µM)	relative viability ([2]; first compound 8 µM)	relative viability ([3]; first compound 0.08 µM)	relative viability ([3]; first compound 0.8 µM)	relative viability ([3]; first compound 2.53 µM)	relative viability ([3]; first compound 8 µM)	relative viability ([4]; first compound 0.08 µM)	relative viability ([4]; first compound 0.8 µM)	relative viability ([4]; first compound 2.53 µM)	relative viability ([4]; first compound 8 µM)
NCI-H322M	0.924	0.815	0.935	0.79	0.549	1.01	0.859	0.596	0.839	1.02	1.06	0.753	1.03	0.886	0.795	0.663	0.795
ABC-1	0.717	0.699	0.929	0.838	0.536	0.358	0.608	1.04	0.676	1.21	1.16	0.875	1.29	0.256	0.21	0.234	0.264
NCI-H1993	0.991	0.683	0.702	0.753	0.613	0.957	0.698	0.724	0.723	0.979	0.834	0.82	0.774	0.523	0.441	0.524	0.508
NCI-H1355	0.756	0.716	0.705	0.667	0.646	0.702	0.725	0.559	0.568	1.13	1.06	0.852	1.18	0.45	0.459	0.382	0.412
PC-3 [JPC-3]	0.628	0.67	0.866	0.675	0.71	0.807	0.721	0.698	0.87	0.976	0.948	0.973	0.849	0.534	0.481	0.436	0.467
NCI-H1651	0.92	0.825	0.919	0.955	0.61	0.886	0.831	0.926	1.16	0.87	0.895	0.845	1.07	0.351	0.302	0.298	0.357
LK-2	0.224	0.205	0.206	0.187	0.16	0.175	–	0.173	0.174	0.208	–	0.208	0.196	0.399	–	0.346	0.429
NCI-H2023	0.818	0.76	0.666	0.65	0.653	0.927	0.714	0.827	0.882	0.745	0.636	0.56	0.754	0.529	0.417	0.368	0.501
NCI-H2342	0.763	0.865	0.736	0.821	0.825	0.773	0.8	0.813	0.826	–	–	–	–	0.596	0.627	0.567	0.628
COR-L23	0.687	0.737	0.709	0.655	0.404	1.12	0.64	0.661	0.64	0.818	0.648	0.601	0.661	0.544	0.405	0.379	0.566
NCI-H1734	0.224	0.19	0.153	0.172	0.142	0.201	0.16	0.2	0.19	0.892	0.724	0.686	0.736	0.464	0.409	0.363	0.424
NCI-H23	0.201	0.222	0.224	0.216	0.201	0.212	–	0.217	0.193	0.753	0.428	0.412	0.515	0.935	0.839	0.86	0.842
NCI-H1703	–	–	–	–	–	–	–	–	–	1.45	0.859	0.483	0.607	–	–	–	–
NCI-H1299	–	–	–	–	–	–	–	–	–	1.09	0.981	0.871	1.1	–	–	–	–
HCC-78	–	–	–	–	–	–	–	–	–	0.36	0.316	0.332	0.348	0.728	0.772	0.819	0.745
NCI-H522	1.33	1.15	1.16	1.29	0.821	1.1	1.22	1.28	1.15	–	–	–	–	0.711	0.597	0.611	0.658
A549	–	–	–	–	–	–	–	–	–	1.33	0.891	0.605	0.985	0.121	0.114	0.192	0.163
NCI-H1793	0.182	0.19	0.202	0.132	0.173	0.238	0.162	0.161	0.175	–	–	–	–	0.358	0.435	0.327	0.422
HCC-366	–	–	–	–	–	–	–	–	–	1.26	0.523	0.265	0.828	0.65	0.649	0.588	0.665
NCI-H1395	0.701	0.763	0.688	0.808	0.686	0.681	0.708	0.553	0.593	–	–	–	–	0.457	0.471	0.409	0.459
EBC-1	–	–	–	–	–	–	–	–	–	0.196	0.19	0.181	0.166	–	–	–	–
IA-LM	–	–	–	–	–	–	–	–	–	1.06	0.645	0.788	0.923	–	–	–	–
